Measurements taken from patent publication US8058306B2, “Phenyl pyrrole aminoguanidine derivatives” (Action Pharma A/S, priority 2006, dated 2011).

How the values were obtained:
human MC3 receptor = target: T1, human MC3 receptor (Homo sapiens, UniProt P41968); assay: [125I]-NDP-MSH radio-ligand binding, MC3 (h) receptor (recombinant CHO cells); conditions: 60 min/37° C.
T1 construct: expressed in transfected cells; host or cells: CHO cells
Protocol: (§1) Determination of binding affinities for MC receptors was performed by [^125I]-[Nle4,D-Phe7]α-MSH ([^125I]-NDP-MSH) radio-ligand binding. In short, murine B16-F1 melanoma cells expressing MC1, but not other MC receptors, were used for binding affinity studies against the murine MC1 receptor (Siegrist et al.; 1988, J. Recept. Res., 8(1-4):323-43). For human MC3, MC4 and MC5 receptor affinities human recombinant CHO cells were used (Schioth et al. 1997, Neuropeptides 31:565-71, 1997). Cells were suspended in HEPES buffer and by use of microwell plates radio-ligands, as well as test compound, in the concentration range of 10^−10 to 10^−6 were added. After incubation at 37° C. (22° C. for the MC1 receptor assay) separation of bound and free [^125I]-NDP-MSH was done by multiple washings with buffer.
(§2) The results were expressed as a percent of control specific binding obtained in the presence of the test compounds. The IC50 values (concentration causing a half-maximal inhibition of control specific binding) and Hill coefficients (nH) were determined by non-linear regression analysis of the competition curves using Hill equation curve fitting. The inhibition constants (Ki) were calculated from the Cheng Prusoff equation (Ki=IC50/(1+(L/KD)), where L=concentration of radio-ligand in the assay, and KD=affinity of the radio-ligand for the receptor).

human MC5 receptor = target: T2, human MC5 receptor (Homo sapiens, UniProt P33032); assay: [125I]-NDP-MSH radio-ligand binding, MC5 (h) receptor (recombinant CHO cells); conditions: 60 min/37° C.
T2 construct: expressed in transfected cells; host or cells: CHO cells
T2 sequence (P33032 whole entry): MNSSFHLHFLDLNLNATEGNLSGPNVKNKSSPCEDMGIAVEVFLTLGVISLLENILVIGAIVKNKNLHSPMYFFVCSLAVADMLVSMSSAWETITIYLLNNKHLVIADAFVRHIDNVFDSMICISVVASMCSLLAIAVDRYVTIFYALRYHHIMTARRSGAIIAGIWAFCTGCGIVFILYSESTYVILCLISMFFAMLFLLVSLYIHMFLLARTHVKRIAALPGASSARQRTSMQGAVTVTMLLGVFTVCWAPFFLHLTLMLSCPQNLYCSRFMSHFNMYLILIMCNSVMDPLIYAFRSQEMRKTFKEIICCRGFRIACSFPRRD
Protocol: as §1, §2

human MC4 receptor = target: T3, human MC4 receptor (Homo sapiens, UniProt P32245); assay: [125I]-NDP-MSH radio-ligand binding, MC4 (h) receptor (recombinant CHO cells); conditions: 120 min/37° C.
T3 construct: expressed in transfected cells; host or cells: CHO cells
T3 sequence (P32245 whole entry): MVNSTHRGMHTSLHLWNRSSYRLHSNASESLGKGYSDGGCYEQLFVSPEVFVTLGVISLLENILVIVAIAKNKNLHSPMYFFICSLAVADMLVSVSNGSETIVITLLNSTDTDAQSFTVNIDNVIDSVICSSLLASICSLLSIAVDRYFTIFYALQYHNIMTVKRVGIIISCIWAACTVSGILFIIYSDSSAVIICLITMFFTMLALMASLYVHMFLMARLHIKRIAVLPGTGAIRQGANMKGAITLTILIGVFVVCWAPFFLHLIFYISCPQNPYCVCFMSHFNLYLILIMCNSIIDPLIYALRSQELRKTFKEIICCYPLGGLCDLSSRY
Protocol: as §1, §2

murine MC1 receptor = target: T4, murine MC1 receptor (Mus musculus, UniProt Q01727); assay: [125I]-NDP-MSH radio-ligand binding, MC1 receptor (B16-F1 melanoma cells); conditions: 90 min/22° C.
T4 construct: murine B16-F1 melanoma cells expressing MC1, but not other MC receptors, were used; endogenous in cells; host or cells: murine B16-F1 melanoma cells
T4 sequence (Q01727 whole entry): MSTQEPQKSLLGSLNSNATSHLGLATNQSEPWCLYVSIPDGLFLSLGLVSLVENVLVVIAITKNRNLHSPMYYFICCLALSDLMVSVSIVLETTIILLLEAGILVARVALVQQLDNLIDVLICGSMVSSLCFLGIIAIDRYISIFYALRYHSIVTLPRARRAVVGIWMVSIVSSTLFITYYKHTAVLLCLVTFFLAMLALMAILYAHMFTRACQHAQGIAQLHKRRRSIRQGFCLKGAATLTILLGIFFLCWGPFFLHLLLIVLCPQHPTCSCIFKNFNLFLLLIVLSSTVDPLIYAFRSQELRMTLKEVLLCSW
Protocol: as §1, §2

Measured: Ki

T1 sequence (P41968 whole entry): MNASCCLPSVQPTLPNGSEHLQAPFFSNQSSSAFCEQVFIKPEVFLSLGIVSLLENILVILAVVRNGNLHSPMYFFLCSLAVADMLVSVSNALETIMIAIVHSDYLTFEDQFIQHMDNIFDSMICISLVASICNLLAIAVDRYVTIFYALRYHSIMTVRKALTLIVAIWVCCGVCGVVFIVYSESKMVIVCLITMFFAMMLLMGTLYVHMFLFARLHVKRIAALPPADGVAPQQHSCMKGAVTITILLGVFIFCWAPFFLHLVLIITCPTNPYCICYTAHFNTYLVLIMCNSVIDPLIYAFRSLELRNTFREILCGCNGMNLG

N=C(N)NN=Cc1cccn1-c1ccccc1[N+](=O)[O-] [Reference-compound 2, [1-[2-nitrophenyl)-1H-pyrrol-2-yl-methyleneamino]guanidinium acetate, reference compound]
> 1 µM: all assays above

N=C(N)NN=Cc1cccn1-c1ccc(Cl)cc1 [Reference-compound 1, [1-[4-chlorophenyl)-1H-pyrrol-2-yl-methyleneamino]guanidinium acetate, reference compound]
> 1 µM: all assays above
